# Earlier results as cited in US11147800B2 (Race Oncology Ltd., priority 2013, dated 2021).
# Counter-ions that a name gives are not always drawn.
# How the values were obtained:
# [1] = test system: telomerase-expressing cells and ALT-positive cell lines
# [2] = test system: macrophages
# [3] = test system: colon 26, Lewis lung, Ridgway osteosarcoma, B16, Lieberman plasma cell, P388 or L1210 cancer cells
# [4] = test system: Human Platelets
# [5] = preclinical
# [6] = test system: hepatic microsomal enzymes; details: in vitro
# [7] = test system: L1210 leukemia cells; details: typical of inhibition of DNA topoisomerase II
# [8] = not given; remark: listed apart in the source
# [9] = not given; remark: listed apart in the source
# [10] = test system: Human tumor cells
# [11] = not given; remark: listed apart in the source
# [12] = not given; remark: listed apart in the source
# [13] = molecular target: glycogen synthase kinase-3β (GSK-3β) (Homo sapiens, UniProt P49841)
# [14] = local injection
# [15] = single dose study, the last study
# [16] = single dose study, triphasic elimination, second study
# glycogen synthase kinase-3β (GSK-3β), sequence (P49841 whole entry, species assumed): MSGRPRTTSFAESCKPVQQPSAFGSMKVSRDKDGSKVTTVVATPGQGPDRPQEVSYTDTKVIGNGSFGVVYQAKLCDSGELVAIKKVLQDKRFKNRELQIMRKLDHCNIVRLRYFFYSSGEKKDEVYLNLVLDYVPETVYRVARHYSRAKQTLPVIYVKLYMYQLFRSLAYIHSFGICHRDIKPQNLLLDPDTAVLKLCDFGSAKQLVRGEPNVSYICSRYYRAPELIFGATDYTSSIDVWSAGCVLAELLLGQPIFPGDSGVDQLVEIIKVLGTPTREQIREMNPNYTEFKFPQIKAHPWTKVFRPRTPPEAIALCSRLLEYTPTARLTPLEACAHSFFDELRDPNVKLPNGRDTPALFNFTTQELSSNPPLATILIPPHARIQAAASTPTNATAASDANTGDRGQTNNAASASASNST
compound,measurement,setting,value
C(=N\NC1=NCCN1)/c1cccc2cc3c(/C=N/NC4=NCCN4)cccc3cc12 [Formula (III)],DNA damage response (γH2AX foci partially co-localized at the telomere),[1],consistently provokes a DNA damage response
"C(=NNC1=NCCN1)c1c2ccccc2c(C=NNC2=NCCN2)c2ccccc12 [bisantrene, 9,10-anthracenedicarboxaldehyde bis[(4,5-dihydro-1H-imidazol-2-yl)hydrazine] dihydrochloride]",minimal effective in vivo dose for macrophage activation,[2],25 mg/kg
same,cardiotoxicity in animals,animals,not cardiotoxic
same,toxic findings,"dogs and monkeys, high doses","leukopenia, anorexia, diarrhea, injection site necrosis, enterocolitis, muscle degeneration, and pulmonary edema"
same,antitumor activity in murine tumor models,[3]; P-388 leukemia and B-16 melanoma,antitumor activity
same,"activity in cancer models, parenteral","[3]; i.v., i.p. or s.c., colon 26, Lewis lung, Ridgway osteosarcoma, B16, Lieberman plasma cell, P388 or L1210",effective
same,"activity in cancer models, oral",[3]; orally,inactive
same,platelet aggregation,[4],inhibit platelet aggregation
same,Brain levels,[5],extremely low
same,tissues with the highest concentration (in descending order),[5],"kidney, liver, gallbladder, spleen, lung, and heart"
same,substrate for hepatic microsomal enzymes,[6],substrate
same,DNA strand breaks,[7],induce protein-associated DNA strand breaks
same,major dose-limiting toxic effect,[8]; in vivo,leukopenia
same,DLT,[8]; phase I doses between 190-430 mg/m^2 q3w,neutropenia
same,activity in metastatic breast cancer,"[9]; Phase II, heavily pretreated patients",active
same,activity in phase I clinical trials,"[9]; hepatocellular cancer and hypernephroma (one patient each), lymphoma, myeloma, melanoma, renal cancer, bladder and lung tumors",showed activity
same,activity in refractory malignant melanoma,[9]; phase II,inactive
same,activity in human colon cancer,[9]; tested in vitro or in vivo (phase II advanced colorectal cancer),inactive
same,cross resistance with adriamycin and mitoxantrone,[10],lack of cross resistance
same,sensitivity in in vitro colony-forming assays,"[10]; breast, ovarian, renal, small cell and non-small cell lung, lymphoma, AML, melanoma, gastric, adrenal, head and neck cancer",sensitive
same,urinary excretion of the dose,"[11]; 72-hr infusion study, in 24 hr",4.6%
same,"triphasic elimination, first phase (given as clearances)",[11]; [15],0.1 h
same,"triphasic elimination, second phase (given as clearances)",[11]; [15],1.9 h
same,"triphasic elimination, third phase (given as clearances)",[11]; [15],43.9 h
same,t½α,[11]; [16],3 min
same,t½β,[11]; [16],1 h
same,t½γ,[11]; [16],8 h
same,local tissue toxicity if extravasated,"[12]; human, in vivo",potent vesicant
same,patients reporting malaise,"[12]; human, in vivo",up to one-half of patients
same,cardiotoxicity compared with mitoxantrone or doxorubicin,[12]; phase III trial,less cardiotoxic
CN1C(=O)/C(=C2/C(=O)Nc3ccccc32)c2ccccc21 [meisoindigo],concentration for inhibition of GSK-3β,[13],5 to 50 nM
O=C([O-])O.[Na+] [sodium bicarbonate],bisantrene extravasation necrosis,[14],blocked
